Test results published in PMC9963876, “Multiple Effects of Echinochrome A on Selected Ion Channels Implicated in Skin Physiology” (Marine Drugs, 2023).

Assays:
[1] = target: T1, TRPV3 (Homo sapiens, UniProt Q8NET8); assay: whole-cell patch clamp, TRPV3-overexpressing HEK […], 2-APB-activated current; type: cell-based
T1 sequence (Q8NET8 1-790): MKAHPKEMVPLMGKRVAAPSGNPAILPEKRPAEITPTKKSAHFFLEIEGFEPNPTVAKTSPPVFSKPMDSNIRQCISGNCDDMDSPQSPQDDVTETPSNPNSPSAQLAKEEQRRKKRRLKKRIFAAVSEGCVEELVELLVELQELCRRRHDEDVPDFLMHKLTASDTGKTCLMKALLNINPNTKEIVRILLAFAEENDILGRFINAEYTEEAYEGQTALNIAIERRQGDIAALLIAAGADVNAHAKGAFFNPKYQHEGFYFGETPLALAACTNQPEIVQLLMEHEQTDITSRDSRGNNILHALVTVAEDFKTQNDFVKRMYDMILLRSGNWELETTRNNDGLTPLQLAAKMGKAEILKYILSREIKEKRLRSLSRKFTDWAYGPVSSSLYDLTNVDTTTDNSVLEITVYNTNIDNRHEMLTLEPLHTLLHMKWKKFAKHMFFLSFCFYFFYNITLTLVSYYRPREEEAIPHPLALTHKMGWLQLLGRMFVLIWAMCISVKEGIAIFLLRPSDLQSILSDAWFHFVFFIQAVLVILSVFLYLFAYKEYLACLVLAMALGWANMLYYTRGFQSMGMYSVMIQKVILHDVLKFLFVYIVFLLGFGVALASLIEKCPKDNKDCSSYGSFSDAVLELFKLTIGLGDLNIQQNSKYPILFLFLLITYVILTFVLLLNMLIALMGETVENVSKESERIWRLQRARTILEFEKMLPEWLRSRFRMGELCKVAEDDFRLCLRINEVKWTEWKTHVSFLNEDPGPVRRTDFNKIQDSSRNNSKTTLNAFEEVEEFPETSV

[2] = target: T2, Orai1 (Homo sapiens, UniProt Q96D31); assay: whole-cell patch clamp, Orai1/STIM1 co-expressing HEK […]; type: cell-based
T2 construct: with STIM1
T2 sequence (Q96D31 whole entry): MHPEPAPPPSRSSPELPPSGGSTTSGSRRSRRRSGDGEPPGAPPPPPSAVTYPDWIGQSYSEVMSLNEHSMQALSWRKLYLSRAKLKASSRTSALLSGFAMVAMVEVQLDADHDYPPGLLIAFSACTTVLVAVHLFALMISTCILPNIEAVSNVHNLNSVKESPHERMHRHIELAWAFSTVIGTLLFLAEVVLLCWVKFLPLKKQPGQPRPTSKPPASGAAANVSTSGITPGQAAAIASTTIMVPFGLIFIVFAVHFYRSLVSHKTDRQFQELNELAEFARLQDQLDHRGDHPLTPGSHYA
T2 sequence (Q13586 23-685 partner): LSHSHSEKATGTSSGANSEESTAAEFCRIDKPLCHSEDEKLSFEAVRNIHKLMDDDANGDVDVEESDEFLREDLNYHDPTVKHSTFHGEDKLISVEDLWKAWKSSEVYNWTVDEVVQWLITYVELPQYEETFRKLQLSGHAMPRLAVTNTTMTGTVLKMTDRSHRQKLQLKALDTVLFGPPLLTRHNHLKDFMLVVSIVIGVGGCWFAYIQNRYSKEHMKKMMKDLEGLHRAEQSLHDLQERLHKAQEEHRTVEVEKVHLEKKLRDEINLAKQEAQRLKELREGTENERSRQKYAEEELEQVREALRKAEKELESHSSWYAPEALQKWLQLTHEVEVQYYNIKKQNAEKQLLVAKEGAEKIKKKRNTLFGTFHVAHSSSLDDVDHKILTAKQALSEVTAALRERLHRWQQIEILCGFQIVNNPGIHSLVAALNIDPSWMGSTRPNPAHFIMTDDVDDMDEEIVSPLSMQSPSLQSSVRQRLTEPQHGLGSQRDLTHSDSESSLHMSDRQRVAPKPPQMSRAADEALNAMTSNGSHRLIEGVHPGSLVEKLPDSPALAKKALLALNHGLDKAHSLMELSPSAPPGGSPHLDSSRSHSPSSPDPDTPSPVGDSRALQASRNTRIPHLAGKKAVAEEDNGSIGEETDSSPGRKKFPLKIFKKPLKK

CCc1c(O)c(O)c2c(c1O)C(=O)C(O)=C(O)C2=O [Ech A, 6-ethyl-2,3,5,7,8-pentahydroxy-1,4-naphthoquinone]
IC50 [1]: 2110 ± 1050 nM
IC50 [2]: 2410 ± 1550 nM
